Experimental data: patent US20020022718A1, “Genes identified as required for proliferation of E. coli” (priority 1999, published 2002)
Values after ≈ are worked out from the molar mass of the structure shown. Like-named read-outs stand apart in the source and are kept apart here. Bridge positions count the residues as written; N and C are the ends. Square brackets hold non-standard residues; d marks the D form. Peptide text beside a SMILES is read from it. * marks the point of attachment. Ileψ(thiazoline)Cys = CC[C@H](C)[C@H](N)C1=N[C@H](C(=O)*)CS1; dOrn = NCCC[C@@H](N)C(=O)O

B1: EcXA119: antisense clone insert to E. coli b2883 (nucleic acid, listed as Escherichia coli)
antisense: CTCTTTTTCTTCGAGATGGACGCAGTGAGCAAAGACACAGTTTTTACCGGTCAGGCCGTACTGATGGTAAACATCCAGATAACCATCATGGTCAGGATAAAGCGATTTCACCCAGGCAATTTCATCTTTGTTTTCACAGAGATGGGTATGTACCCACGTATCCGGATATTCTTCTTTCAGGCGTTGCGCCATCGCCATCTGTTCAGGAGATGAGGTCGGGGCGAAGCGTGGCGTAATCGCATATAGCAGACGACC
B2: EcXA120: antisense clone insert to E. coli b1509 (nucleic acid, listed as Escherichia coli)
antisense: TCCGCGATCGCGGATAAAAAGGAGGATTTAAATAAGGCGTTGATGCGCCGTTTGAAGTCGGCAATATTAAGCCGCATGCCATCTCGACATGCGGCTTATACGGTTTACCAGCTATATTTCACTCCCAGCATGCCCTGAGTATCGCTATAGCCTTTATCACCTAGTTGCACACCGACATTCCCCCACAGGCTAAGGTTGTTATTTACTTTCGCCTCAACCCCGGTACGTACTTCACCGAGATTACGCGCACCTTCACGGCCTACGGTTTGACCATTCATCTTCACGGCGTAGACTTTGCTATTGTTGATCCAGTTCGCTTCAATGTAAGGCTGGAACTCACGCTGTTTACCATCGTCACGCTGGTGATGGCTGTTCAGGTAGGTTTTCACCCCAAG

Tests used:
[1] = system: Bacterial cells expressing antisense nucleic acid complementary to rplL and rplJ (50S ribosomal subunit proteins); experiment: microbe, parasite or virus in culture; format: cell-based, E. coli; conditions: for IC50: Escherichia coli; for Fold Increase in Sensitivity: IC50 −IPTG versus +IPTG (400 μM); for Sensitivity Increased?: significant decrease in IC50 in the presence of inducer IPTG
Procedure: Two-fold dilution series of antibiotics with a known mechanism of action are generated in the culture media selected for further assay development that has been supplemented with the antibiotic used to maintain the construct. A panel of test antibiotics known to act on different pathways is tested side by side with three to four wells being used to evaluate the effect of a test antibiotic on cell growth at each concentration. Equal volumes of test antibiotic and cells are added to the wells of a 384 well microtiter plate and mixed. Cells are prepared as described above using the media selected for assay development supplemented with the antibiotic required to maintain the antisense construct and are diluted 1:100 in identical media immediately prior to addition to the microtiter plate wells. For a control, cells are also added to several wells that contain the solvent used to dissolve the antibiotics but no antibiotic. Cell growth is monitored continuously by incubation at 37° C. in a microtiter plate reader monitoring the OD600 of the wells over an 18-hour period. […] A plot of percent inhibition against log[antibiotic concentration] allows extrapolation of an IC50 value for each antibiotic.
The culture media selected for use in the assay is supplemented with inducer at concentrations shown to inhibit cell growth by 50% and 80% as described above and the antibiotic used to maintain the construct. Two fold dilution series of the panel of test antibiotics used above are generated in each of these media. Several antibiotics are tested side by side with three to four wells being used to evaluate the effects of an antibiotic on cell growth at each concentration, in each media. Equal volumes of test antibiotic and cells are added to the wells of a 384 well microtiter plate and mixed. Cells are prepared as described above using the media selected for use in the assay supplemented with the antibiotic required to maintain the antisense construct. […] Immediately prior to addition to the microtiter plate wells, the cultures are adjusted to an appropriate OD600 (typically 0.002) by dilution into warm (37° C.) sterile media supplemented with identical concentrations of the inducer and antibiotic used to maintain the antisense construct. For a control, cells are also added to several wells that contain solvent used to dissolve test antibiotics but which contain no antibiotic. Cell growth is monitored continuously by incubation at 37° C. in a microtiter plate reader monitoring the OD600 of the wells over an 18-hour period. […] A plot of percent inhibition against log[antibiotic concentration] allows extrapolation of an IC50 value for each antibiotic.
Antibiotics of various chemical classes and modes of action were purchased from Sigma Chemicals (St. Louis, Mo.). Stock solutions were prepared by dissolving each antibiotic in an appropriate aqueous solution based on information provided by the manufacturer. The final working solution of each antibiotic contained no more than 0.2% (w/v) of any organic solvent. To determine their potency against a bacterial strain engineered for expression of an antisense complementary to a proliferation-required gene encoding 50S ribosomal protein, each antibiotic was serially diluted two or three fold in growth medium supplemented with the appropriate antibiotic for maintenance of the anti-sense construct. At least ten dilutions were prepared for each antibiotic. 25 μL aliquots of each dilution were transferred to discrete wells of a 384-well microplate (the assay plate) using a multi-channel pipette. Quadruplicate wells were used for each dilution of an antibiotic under each treatment condition (plus and minus inducer). Each assay plate contained twenty wells for cell growth controls (growth media replacing antibiotic), ten wells for each treatment (plus and minus inducer, in this example IPTG).

Klebsiella pneumoniae = experiment: Growth inhibition by induced E. coli antisense RNA in Klebsiella pneumoniae; format: cell-based; design: key: +: a positive in Table V below means that at least 10 fold more cells were required to observe a colony on the induced plate than on the non-induced plate; −: If there was no effect of antisense RNA expression in a microorganism, the clone is minus in Table V below; conditions: antisense RNA expression induced with IPTG, serial dilution plating
Procedure: To study the effects of transcriptional induction in liquid medium, growth curves were carried out by back diluting cultures 1:200 into fresh media with or without 1 mM IPTG and measuring the OD450 every 30 minutes (min). To study the effects of transcriptional induction on solid medium, 10^2, 10^3, 10^4, 10^5, 10^6, 10^7 and 10^8 fold dilutions of overnight cultures were prepared. Aliquots of from 0.5 to 3 μl of these dilutions were spotted on selective agar plates with or without 1 mM IPTG. After overnight incubation, the plates were compared to assess the sensitivity of the clones to IPTG.
Molecule No. EcXA190, encoding a portion of the b3052 gene of Escherichia coli, was either transformed directly into Enterobacter cloacae, Salmonella typhimurium and/or Klebsiella pneumoniae or subcloned into an expression vector functional in these species and the subclones transformed into these organisms. Suitable expression vectors are well known in the art. These expression vectors were introduced into Enterobacter cloacae, Salmonella typhimurium and/or Klebsiella pneumoniae cells that were then assayed for growth inhibition according to the method of Example 1. After growth in liquid culture, cells were plated at various serial dilutions and a score determined by calculating the log difference in growth for INDUCED vs. UNINDUCED antisense RNA expression as determined by the maximum 10 fold dilution at which a colony was observed. If there was no effect of antisense RNA expression in one organism, the clone is given a score of zero “0” in that organism. In contrast, a score of “8” means that 10^8 times more cells were required to observe a colony formed on the induced state than in the non-induced state under the conditions used and in that organism.
In addition, the above methods were validated using other antisense nucleic acids which inhibit the growth of E. coli which were identified using methods similar to those described above. Expression vectors which inhibited growth of E. coli upon induction of antisense RNA expression with IPTG were transformed directly into Enterobacter cloacae, Klebsiella pneumonia or Salmonella typhimurium. The transformed cells were then assayed for growth inhibition according to the method of Example 1. After growth in liquid culture, cells were plated at various serial dilutions and a score determined by calculating the log difference in growth for INDUCED vs. UNINDUCED antisense RNA expression as determined by the maximum 10 fold dilution at which a colony was observed. If there was no effect of antisense RNA expression in a microorganism, the clone is minus in Table V below. In contrast, a positive in Table V below means that at least 10 fold more cells were required to observe a colony on the induced plate than on the non-induced plate under the conditions used and in that microorganism.

| Molecule | IC50 ([1]; read-out: IC50 (+IPTG)) | IC50 ([1]; read-out: IC50 (−IPTG)) | Fold Increase in Sensitivity [1] | Sensitivity Increased? [1] | IC50 (+IPTG) ([1]; antisense to rplL and rplJ induced, 400 μM IPTG) | IC50 (−IPTG) ([1]; non-induced cells, 0 μM IPTG) | Sensitivity of K. pneumoniae to antisense nucleic acid (growth inhibition, induced vs. uninduced) (Klebsiella pneumoniae) |
| --- | --- | --- | --- | --- | --- | --- | --- |
| CCC[C@@H]1C[C@@H](C(=O)N[C@@H]([C@H]2O[C@H](SC)[C@H](O)[C@@H](O)[C@H]2O)[C@@H](C)O)N(C)C1 [Lincomycin] | 0.324 µg/mL (≈ 0.797 µM) | 47.1 µg/mL (≈ 116 µM) | 145 | Yes |  |  |  |
| CO[C@@]1(NC(=O)Cc2cccs2)C(=O)N2C(C(=O)O)=C(COC(N)=O)CS[C@@H]21 [Cefoxitin] | 2.48 µg/mL (≈ 5.81 µM) | 2.78 µg/mL (≈ 6.51 µM) | 1 | No |  |  |  |
| CC(=O)O[C@H]1C[C@@]2(C)[C@@H](C[C@@H](O)[C@H]3[C@@]4(C)CC[C@@H](O)[C@@H](C)[C@@H]4CC[C@@]32C)/C1=C(\CCC=C(C)C)C(=O)O [Fusidic acid] | 0.641 µg/mL (≈ 1.24 µM) | 60 µg/mL (≈ 116 µM) | 94 | Yes |  |  |  |
| CN(C)c1ccc(O)c2c1C[C@H]1C[C@H]3[C@H](N(C)C)C(O)=C(C(N)=O)C(=O)[C@@]3(O)C(O)=C1C2=O [Minocycline] | 0.0039 µg/mL (≈ 0.00852 µM) | 0.668 µg/mL (≈ 1.46 µM) | 172 |  |  |  |  |
| NC[C@H]1O[C@H](O[C@H]2[C@H](O)[C@@H](O[C@H]3O[C@H](CO)[C@@H](O)[C@H](N)[C@H]3O)[C@H](N)C[C@@H]2N)[C@H](N)C[C@@H]1O [Tobramycin] | 0.0706 µg/mL (≈ 0.151 µM) | 3.59 µg/mL (≈ 7.69 µM) | 51 | Yes |  |  |  |
| [H]/N=C(/N)N[C@H]1[C@H](O)[C@@H](O)[C@H](O[C@@H]2O[C@@H](C)[C@](O)(C=O)[C@H]2O[C@@H]2O[C@@H](CO)[C@H](O)[C@@H](O)[C@@H]2NC)[C@@H](N/C(N)=N\[H])[C@@H]1O [Streptomycin] | 0.161 µg/mL (≈ 0.277 µM) | 11.3 µg/mL (≈ 19.4 µM) | 70 | Yes |  |  |  |
| CN[C@H](CC(C)C)C(=O)N[C@H]1C(=O)N[C@@H](CC(N)=O)C(=O)N[C@H]2C(=O)N[C@H]3C(=O)N[C@H](C(=O)N[C@H](C(=O)O)c4cc(O)cc(O)c4-c4cc3ccc4O)[C@H](O)c3ccc(c(Cl)c3)Oc3cc2cc(c3O[C@@H]2O[C@H](CO)[C@@H](O)[C@H](O)[C@H]2O[C@H]2C[C@](C)(N)[C@H](O)[C@H](C)O2)Oc2ccc(cc2Cl)[C@H]1O [Vancomycin] | 72.5 µg/mL (≈ 50.1 µM) | 145 µg/mL (≈ 100 µM) | 2 | No |  |  |  |
| CO/N=C(\C(=O)N[C@@H]1C(=O)N2C(C(=O)O)=C(COC(C)=O)CS[C@H]12)c1csc(N)n1 [Cefotaxime] | 0.0242 µg/mL (≈ 0.053 µM) | 0.0243 µg/mL (≈ 0.0534 µM) | 1 | No |  |  |  |
| O=C(N[C@H](CO)[C@H](O)c1ccc([N+](=O)[O-])cc1)C(Cl)Cl [Chloramphenicol] | 0.00152 µg/mL (≈ 0.00469 µM) | 0.465 µg/mL (≈ 1.44 µM) | 307 | Yes |  |  |  |
| CC1COc2c(N3CCN(C)CC3)c(F)cc3c(=O)c(C(=O)O)cn1c23 (stereo not drawn) [Ofloxacin] | 0.0459 µg/mL (≈ 0.127 µM) | 0.0496 µg/mL (≈ 0.137 µM) | 1 |  |  |  |  |
| CC[C@H](C)[C@H](N)C1=N[C@H](C(=O)N[C@@H](CC(C)C)C(=O)N[C@H](CCC(=O)O)C(=O)N[C@H](C(=O)N[C@H]2CCCCNC(=O)[C@H](CC(N)=O)NC(=O)[C@@H](CC(=O)O)NC(=O)[C@H](Cc3cnc[nH]3)NC(=O)[C@@H](Cc3ccccc3)NC(=O)[C@H]([C@@H](C)CC)NC(=O)[C@@H](CCCN)NC2=O)[C@@H](C)CC)CS1 [Bacitracin] ({Ileψ(thiazoline)Cys}-L[dE]IK[dOrn]I[dF]H[dD]N; lactam 4-C) | 4.68 µg/mL (≈ 3.29 µM) | 4.08 µg/mL (≈ 2.87 µM) | 1 | No |  |  |  |
| CN[C@@H]1[C@H](O)[C@H](NC)[C@H]2O[C@@]3(O)C(=O)C[C@@H](C)O[C@H]3O[C@@H]2[C@H]1O [Spectinomycin] | < 0.156 µg/mL | 18.1 µg/mL (≈ 54.3 µM) |  | Yes |  |  |  |
| CN(C)[C@@H]1C(O)=C(C(N)=O)C(=O)[C@@]2(O)C(O)=C3C(=O)c4c(O)cccc4[C@@](C)(O)[C@H]3C[C@@H]12 [Tetracycline] | 0.00183 µg/mL (≈ 0.00412 µM) | 0.2 µg/mL (≈ 0.449 µM) | 109 |  |  |  |  |
| Gentamicin |  |  | 141 | Yes | 0.01919 µg/mL | 2.715 µg/mL |  |
| C[C@H]1c2cccc(O)c2C(=O)C2=C(O)[C@]3(O)C(=O)C(C(N)=O)=C(O)[C@@H](N(C)C)[C@@H]3[C@@H](O)[C@@H]21 [Doxycycline] | 0.0278 µg/mL (≈ 0.0626 µM) | 0.413 µg/mL (≈ 0.929 µM) | 15 |  |  |  |  |
| B1 |  |  |  |  |  |  | − |
| B2 |  |  |  |  |  |  | − |
